Source: PubChem BioAssay (NCI)
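Briefly, cells in 96-well plates were exposed to five compound concentrations for 48 h, and endpoints were estimated by linear interpolation. GI50: concentration for 50% inhibition of growth. TGI marks complete inhibition of growth.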

Tests used:
Test in all cases: DTP human tumour cell line panel, 48 h
SK-MEL-2 melanoma = system: SK-MEL-2 melanoma
HOP-92 NSCLC = system: HOP-92 NSCLC
IGROV1 ovarian = system: IGROV1 ovarian
COLO 205 colon = system: COLO 205 colon
HT29 colon = system: HT29 colon
SF-268 CNS = system: SF-268 CNS
NCI-H522 lung = system: NCI-H522 lung
UO-31 renal = system: UO-31 renal
SF-539 CNS = system: SF-539 CNS
SN12C renal = system: SN12C renal
OVCAR-4 ovarian = system: OVCAR-4 ovarian
HS 578T breast = system: HS 578T breast
U251 CNS = system: U251 CNS
OVCAR-3 ovarian = system: OVCAR-3 ovarian
NCI-H460 lung = system: NCI-H460 lung
NCI-H226 lung = system: NCI-H226 lung
MALME-3M melanoma = system: MALME-3M melanoma
OVCAR-5 ovarian = system: OVCAR-5 ovarian
UACC-257 melanoma = system: UACC-257 melanoma
CAKI-1 renal = system: CAKI-1 renal
HCT-15 colon = system: HCT-15 colon
OVCAR-8 ovarian = system: OVCAR-8 ovarian
SNB-19 CNS = system: SNB-19 CNS
KM12 colon = system: KM12 colon
MOLT-4 leukemia = system: MOLT-4 leukemia
UACC-62 melanoma = system: UACC-62 melanoma
ACHN renal = system: ACHN renal
EKVX NSCLC = system: EKVX NSCLC
DU-145 prostate = system: DU-145 prostate
SK-MEL-28 melanoma = system: SK-MEL-28 melanoma
MDA-MB-435 = system: MDA-MB-435
HCC-2998 colon = system: HCC-2998 colon
HOP-62 NSCLC = system: HOP-62 NSCLC
RPMI-8226 leukemia = system: RPMI-8226 leukemia
K-562 leukemia = system: K-562 leukemia
SNB-75 CNS = system: SNB-75 CNS
HCT-116 colon = system: HCT-116 colon
LOX IMVI melanoma = system: LOX IMVI melanoma
BT-549 breast = system: BT-549 breast
TK-10 renal = system: TK-10 renal
RXF 393 renal = system: RXF 393 renal
MCF7 breast = system: MCF7 breast
CCRF-CEM leukemia = system: CCRF-CEM leukemia
786-0 renal = system: 786-0 renal
MDA-MB-231 breast = system: MDA-MB-231 breast
NCI-H23 lung = system: NCI-H23 lung
A498 renal = system: A498 renal
M14 melanoma = system: M14 melanoma
PC-3 prostate = system: PC-3 prostate
SR leukemia = system: SR leukemia
SK-MEL-5 melanoma = system: SK-MEL-5 melanoma
A549 NSCLC = system: A549 NSCLC
HL-60(TB) leukemia = system: HL-60(TB) leukemia
T-47D breast = system: T-47D breast
SW-620 colon = system: SW-620 colon
NCI/ADR-RES ovarian = system: NCI/ADR-RES ovarian
SF-295 CNS = system: SF-295 CNS
SK-OV-3 ovarian = system: SK-OV-3 ovarian

In the case of CC(C)c1ccc(C(=O)Nc2nc3ccc(O)cc3s2)cc1, the GI50 (SK-MEL-2 melanoma) is reported as 18 µM, the TGI (SK-MEL-2 melanoma) is reported as over 100 µM and the GI50 (HOP-92 NSCLC) is reported as 5.18 µM. The TGI (HOP-92 NSCLC) was 55 µM, the GI50 (IGROV1 ovarian) was 0.361 µM and the TGI (IGROV1 ovarian) was over 100 µM. For the same molecule, the GI50 (COLO 205 colon) was 3.58 µM, the TGI (COLO 205 colon) was over 100 µM and the GI50 (HT29 colon) was 3.38 µM. For the same molecule, the TGI (HT29 colon) was 17.8 µM, the GI50 (SF-268 CNS) was 4.06 µM and the TGI (SF-268 CNS) was over 100 µM. The GI50 (NCI-H522 lung) was 0.693 µM, the TGI (NCI-H522 lung) was over 100 µM and the GI50 (UO-31 renal) was 0.35 µM. It also gave a TGI (UO-31 renal) of over 100 µM, a GI50 (SF-539 CNS) of 1.22 µM and a TGI (SF-539 CNS) of 11.6 µM. It also gave a GI50 (SN12C renal) of 2.18 µM, a TGI (SN12C renal) of over 100 µM and a GI50 (OVCAR-4 ovarian) of 0.873 µM. The TGI (OVCAR-4 ovarian) was 80.2 µM, the GI50 (HS 578T breast) was 11.4 µM and the TGI (HS 578T breast) was over 100 µM. The GI50 (U251 CNS) was 9.32 µM, the TGI (U251 CNS) was over 100 µM and the GI50 (OVCAR-3 ovarian) was 1.36 µM. It also gave a TGI (OVCAR-3 ovarian) of 51.4 µM, a GI50 (NCI-H460 lung) of 0.47 µM and a TGI (NCI-H460 lung) of 10.9 µM. For the same molecule, the GI50 (NCI-H226 lung) was 5.16 µM, the TGI (NCI-H226 lung) was 50.4 µM and the GI50 (MALME-3M melanoma) was 0.684 µM. It also gave a TGI (MALME-3M melanoma) of over 100 µM, a GI50 (OVCAR-5 ovarian) of 7.68 µM and a TGI (OVCAR-5 ovarian) of over 100 µM. For the same molecule, the GI50 (UACC-257 melanoma) was 1.51 µM, the TGI (UACC-257 melanoma) was over 100 µM and the GI50 (CAKI-1 renal) was 0.845 µM. It also gave a TGI (CAKI-1 renal) of over 100 µM, a GI50 (HCT-15 colon) of 0.274 µM and a TGI (HCT-15 colon) of over 100 µM. The GI50 (OVCAR-8 ovarian) was 1.48 µM, the TGI (OVCAR-8 ovarian) was over 100 µM and the GI50 (SNB-19 CNS) was 8.27 µM. It also gave a TGI (SNB-19 CNS) of over 100 µM, a GI50 (KM12 colon) of 0.262 µM and a TGI (KM12 colon) of over 100 µM. It also gave a GI50 (MOLT-4 leukemia) of 0.246 µM, a TGI (MOLT-4 leukemia) of over 100 µM and a GI50 (UACC-62 melanoma) of 0.124 µM. For the same molecule, the TGI (UACC-62 melanoma) was over 100 µM, the GI50 (ACHN renal) was 0.304 µM and the TGI (ACHN renal) was over 100 µM. The GI50 (EKVX NSCLC) was 2.34 µM, the TGI (EKVX NSCLC) was over 100 µM and the GI50 (DU-145 prostate) was 1.7 µM. It also gave a TGI (DU-145 prostate) of over 100 µM, a GI50 (SK-MEL-28 melanoma) of 0.628 µM and a TGI (SK-MEL-28 melanoma) of over 100 µM. For the same molecule, the GI50 (MDA-MB-435) was 0.443 µM, the TGI (MDA-MB-435) was over 100 µM and the GI50 (HCC-2998 colon) was 0.371 µM. The TGI (HCC-2998 colon) was 1.81 µM, the GI50 (HOP-62 NSCLC) was 1.74 µM and the TGI (HOP-62 NSCLC) was over 100 µM. It also gave a GI50 (RPMI-8226 leukemia) of 2.74 µM, a TGI (RPMI-8226 leukemia) of over 100 µM and a GI50 (K-562 leukemia) of 0.298 µM. It also gave a TGI (K-562 leukemia) of 28.6 µM, a GI50 (SNB-75 CNS) of 9.18 µM and a TGI (SNB-75 CNS) of 73.2 µM. For the same molecule, the GI50 (HCT-116 colon) was 0.468 µM, the TGI (HCT-116 colon) was over 100 µM and the GI50 (LOX IMVI melanoma) was 0.2 µM. It also gave a TGI (LOX IMVI melanoma) of 29.5 µM, a GI50 (BT-549 breast) of 2.8 µM and a TGI (BT-549 breast) of over 100 µM. The GI50 (TK-10 renal) was 8.98 µM, the TGI (TK-10 renal) was over 100 µM and the GI50 (RXF 393 renal) was 2.6 µM. The TGI (RXF 393 renal) was 13.9 µM, the GI50 (MCF7 breast) was 0.442 µM and the TGI (MCF7 breast) was 48.2 µM. The GI50 (CCRF-CEM leukemia) was 0.318 µM, the TGI (CCRF-CEM leukemia) was over 100 µM and the GI50 (786-0 renal) was 0.866 µM. It also gave a TGI (786-0 renal) of 6.09 µM, a GI50 (MDA-MB-231 breast) of 1.97 µM and a TGI (MDA-MB-231 breast) of over 100 µM. The GI50 (NCI-H23 lung) was 3.52 µM, the TGI (NCI-H23 lung) was over 100 µM and the GI50 (A498 renal) was 2.2 µM. It also gave a TGI (A498 renal) of 9.91 µM, a GI50 (M14 melanoma) of 0.167 µM and a TGI (M14 melanoma) of 46.5 µM. It also gave a GI50 (PC-3 prostate) of 3.23 µM, a TGI (PC-3 prostate) of over 100 µM and a GI50 (SR leukemia) of 0.715 µM. For the same molecule, the TGI (SR leukemia) was 68.7 µM, the GI50 (SK-MEL-5 melanoma) was 0.535 µM and the TGI (SK-MEL-5 melanoma) was over 100 µM. It also gave a GI50 (A549 NSCLC) of 2.33 µM, a TGI (A549 NSCLC) of over 100 µM and a GI50 (HL-60(TB) leukemia) of 0.481 µM. The TGI (HL-60(TB) leukemia) was 20.2 µM, the GI50 (T-47D breast) was 0.715 µM and the TGI (T-47D breast) was over 100 µM. For the same molecule, the GI50 (SW-620 colon) was 0.552 µM, the TGI (SW-620 colon) was over 100 µM and the GI50 (NCI/ADR-RES ovarian) was 0.948 µM. For the same molecule, the TGI (NCI/ADR-RES ovarian) was over 100 µM.
CCCCCCCCCCCCCCCCCCNc1ccn(C2OC(COP(=O)(O)OC3CC(n4cc(F)c(=O)[nH]c4=O)OC3COP(=O)(O)OCC3OC(n4ccc(N)nc4=O)C(O)C3O)C(O)C2O)c(=O)n1 (centres undefined) was tested, and the TGI (SK-MEL-2 melanoma) was 37.3 µM, the TGI (HOP-92 NSCLC) was over 100 µM and the TGI (IGROV1 ovarian) was 54.9 µM. It also gave a TGI (COLO 205 colon) of over 48.7 µM, a TGI (HT29 colon) of over 59.4 µM and a TGI (NCI-H522 lung) of over 69.7 µM. It also gave a TGI (UO-31 renal) of over 51.9 µM, a TGI (SF-539 CNS) of 2.17 µM and a TGI (SN12C renal) of 98.2 µM. It also gave a TGI (OVCAR-4 ovarian) of over 100 µM, a TGI (HS 578T breast) of over 100 µM and a TGI (U251 CNS) of over 50.4 µM. For the same molecule, the TGI (OVCAR-3 ovarian) was over 100 µM, the TGI (NCI-H460 lung) was over 32.7 µM and the TGI (NCI-H226 lung) was over 82.2 µM. The TGI (MALME-3M melanoma) was over 100 µM, the TGI (OVCAR-5 ovarian) was over 100 µM and the TGI (UACC-257 melanoma) was over 57.3 µM. The TGI (CAKI-1 renal) was 35.5 µM, the TGI (HCT-15 colon) was 41.4 µM and the TGI (OVCAR-8 ovarian) was over 51.8 µM. For the same molecule, the TGI (SNB-19 CNS) was over 57.9 µM, the TGI (KM12 colon) was 41.5 µM and the TGI (MOLT-4 leukemia) was 29.2 µM. For the same molecule, the TGI (UACC-62 melanoma) was over 44.4 µM, the TGI (ACHN renal) was over 100 µM and the TGI (EKVX NSCLC) was over 74.6 µM. For the same molecule, the TGI (DU-145 prostate) was 39.8 µM, the TGI (SK-MEL-28 melanoma) was over 100 µM and the TGI (MDA-MB-435) was over 62.5 µM. The TGI (HCC-2998 colon) was 27.3 µM, the TGI (HOP-62 NSCLC) was over 76.8 µM and the TGI (RPMI-8226 leukemia) was 71.4 µM. It also gave a TGI (SF-295 CNS) of over 51.9 µM, a TGI (K-562 leukemia) of over 100 µM and a TGI (SNB-75 CNS) of over 100 µM. The TGI (HCT-116 colon) was over 60.7 µM, the TGI (LOX IMVI melanoma) was 20 µM and the TGI (BT-549 breast) was 33.4 µM. For the same molecule, the TGI (TK-10 renal) was over 100 µM, the TGI (RXF 393 renal) was over 75.5 µM and the TGI (SK-OV-3 ovarian) was over 58.8 µM. It also gave a TGI (MCF7 breast) of over 100 µM, a TGI (CCRF-CEM leukemia) of 3.37 µM and a TGI (786-0 renal) of over 58.1 µM. It also gave a TGI (MDA-MB-231 breast) of over 61.7 µM, a TGI (NCI-H23 lung) of over 45.7 µM and a TGI (A498 renal) of over 100 µM. For the same molecule, the TGI (M14 melanoma) was 23.4 µM, the TGI (PC-3 prostate) was over 66.7 µM and the TGI (SR leukemia) was 25.6 µM. It also gave a TGI (SK-MEL-5 melanoma) of over 48.8 µM, a TGI (A549 NSCLC) of over 51 µM and a TGI (HL-60(TB) leukemia) of 11.4 µM. The TGI (T-47D breast) was over 100 µM, the TGI (SW-620 colon) was over 57.3 µM and the TGI (NCI/ADR-RES ovarian) was 53.5 µM.
